The values that follow come from patent US5663148A, “Anaphylatoxin receptor ligands containing lipophilic residues” (Abbott Laboratories, priority 1994, dated 1997).

In the assay the target is T1, C5a receptor (Homo sapiens, UniProt P21730).
T1 construct: from tissue; host or cells: polymorphonuclear leukocyte (PMNL) membrane fragments
T1 sequence (P21730 1-350): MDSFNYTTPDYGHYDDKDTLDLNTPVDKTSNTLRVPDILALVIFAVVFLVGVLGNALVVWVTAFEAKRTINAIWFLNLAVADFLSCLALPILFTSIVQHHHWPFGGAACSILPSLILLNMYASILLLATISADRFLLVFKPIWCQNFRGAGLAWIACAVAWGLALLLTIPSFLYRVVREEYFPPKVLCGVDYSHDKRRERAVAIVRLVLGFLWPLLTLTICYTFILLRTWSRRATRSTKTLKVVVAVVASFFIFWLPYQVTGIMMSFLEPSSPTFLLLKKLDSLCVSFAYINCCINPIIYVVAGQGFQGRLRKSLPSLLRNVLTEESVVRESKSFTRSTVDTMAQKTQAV
As to the kind of experiment: Anaphylatoxin (C5a) receptor binding Ki determination, 125I-C5a on PMNL membrane fragments. Particulars: read-out: Ki (In vitro C5a Receptor Binding Potency). As for the experimental part:
The membrane-bound radiolabeled C5a was separated from the free radiolabeled C5a by filtration, and the recovered gamma radioactivity was measured. […] Free and membrane-bound ligand were separated by filtration.

pKi: −log10 of the molar value. Where a SMILES comes first, the peptide text is derived from it. [ ]: non-standard residue; d: D form. The star is where a group is joined. ξ: configuration not given here. Pentanoyl(5-Ph) = O=C(CCCCc1ccccc1)*; d(hhPhe) = N[C@H](CCCc1ccccc1)C(=O)O; Cha = N[C@@H](CC1CCCCC1)C(=O)O; ξhhPhe = NC(CCCc1ccccc1)C(=O)O; X3 = Nc1ccccc1C=CC(=O)*; Ahx = NCCCCCC(=O)O

In the case of `CC(C)C[C@H](NC(=O)CNC(=O)[C@H](CC1CCCCC1)NC(=O)CCCCc1ccccc1)C(=O)N[C@H](CCCc1ccccc1)C(=O)N[C@@H](CCCNC(=N)N)C(=O)O` [Example 62, N-(5-Phenylvaleryl)-{(2S)-2-Amino-3-cyclohexylpropanoyl}-Glycyl-Leucyl-{(R)-2-Amino-5-phenylpentanoyl}-Arginyl-OH] ({Pentanoyl(5-Ph)}-[Cha]GL[d(hhPhe)]R-OH), the negative logarithm of the Ki (pKi) was 5.97.
With `CC(C)C[C@H](NC(=O)CNC(=O)[C@H](CCC1CCCCC1)NC(=O)CCCCCN)C(=O)NC(CCCc1ccccc1)C(=O)N[C@@H](CCCNC(=N)N)C(=O)O` (single isomer, unassigned) [Example 138] the figure was 6.48; with `CC(C)C[C@H](NC(=O)CNC(=O)C=Cc1ccccc1N)C(=O)N[C@H](CCCc1ccccc1)C(=O)N[C@@H](CCCNC(=N)N)C(=O)O` [Example 106, N-(2-Aminocinnamoyl)-Glycyl-Leucyl-{(R)-2-Amino-5-phenylpentanoyl}-Arginyl-OH] (X3-GL[d(hhPhe)]R-OH), 6.39.
With `CC(C)C[C@H](NC(=O)[C@H](C)NC(=O)[C@H](CC1CCCCC1)NC(=O)[C@@H]1CCCN1C(=O)CCCCCN)C(=O)NC(CCCc1ccccc1)C(=O)N[C@@H](CCCNC(=N)N)C(=O)O` (stereo partly drawn) [Example 81, N-(6-Aminohexanoyl)-Prolyl-{(2S)-2-Amino-3-cyclohexylpropanoyl}-Alanyl-Leucyl-{(+)-2-Amino-5-phenylpentanoyl}-Arginyl-OH] (H-[Ahx]P[Cha]AL[ξhhPhe]R-OH) the figure was 6.96; with `CC(C)C[C@H](NC(=O)[C@H](C)NC(=O)[C@H](CC1CCCCC1)NC(=O)CNC(=O)CCCCCN)C(=O)NC(CCCc1ccccc1)C(=O)N[C@@H](CCCNC(=N)N)C(=O)O` (single isomer, unassigned) [Example 32], 5.00.
